Source: patent US10703698B2, “Compounds which activate estrogen receptors and compositions and methods of using the same” (The Board of Trustees of the University of Illinois, priority 2016, dated 2020)
“Also recorded” adds a separate entry of the source.

What was measured:
[1] = test system: ovariectomized mice; experiment: carotid artery reendothelialization after perivascular electric injury; assay type: in vivo
Procedure: Carotid artery reendothelialization was studied following perivascular electric injury in mice by assessing Evans blue dye uptake 72 h after injury. Endothelial denudation and recovery after injury in this model have been confirmed by immunohistochemistry for von Willebrand Factor. […] Carotid artery denudation was performed 21d later. In select studies additional treatments included subcutaneous injections of vehicle or ICI 182,780 (360 μg/mouse) administered 3d prior to carotid injury and on the day of injury. At the end of the study, uteri were also harvested and weighed.

[2] = test system: ovariectomized C57BL/6 mice; experiment: stroke model, transient middle cerebral artery occlusion (tMCAo)
[3] = test system: ovariectomized C57BL/6 mice; experiment: ovariectomized mice: uterus, thymus and mammary gland effects
[4] = test system: MCF-7 cells; experiment: RNA-Seq transcriptional profiling of MCF-7 cells; assay type: cell-based, human; conditions: for number of genes regulated: 10 nM E2 or 1 μM PaPE-1
Procedure: For gene expression analysis, total RNA was extracted from 3 biological replicates for each ligand treatment using Trizol reagent and further cleaned using the RNAeasy kit (QIAGEN). […] Once the sample quality and replicate reproducibility were verified, 2 samples from each group were subjected to sequencing. RNA at a concentration of 100 ng/μL in nuclease-free water was used for library construction. cDNA libraries were prepared with the mRNA-TruSeq Kit (Illumina, Inc.). Briefly, the poly-A containing mRNA was purified from total RNA, RNA was fragmented, double-stranded cDNA was generated from fragmented RNA, and adapters were ligated to the ends.
The paired-end read data from the HiSeq 2000 were processed and analyzed through a series of steps. Base calling and de-multiplexing of samples within each lane were done with Casava 1.8.2. FASTQ files were trimmed using FASTQ Trimmer (version 1.0.0). TopHat2 (version 0.5) was employed to map paired RNA-Seq reads to version hg19 of the Homo sapiens reference genome in the UCSC genome browser in conjunction with the RefSeq genome reference annotation. Gene expression values (raw read counts) from BAM files were calculated using StrandNGS (version 2.1) Quantification tool. Partial reads were considered and option of detecting novel genes and exons was selected. Default parameters for finding novel exons and genes were specified. DESeq normalization algorithm using default values was selected. Differentially expressed genes were then determined by fold-change and p-value with Benjamini and Hochberg multiple test correction for each gene for each treatment relative to the vehicle control. Genes with fold-change >2 and p-value <0.05 were considered as statistically significant, differentially expressed. All RNA-Seq datasets have been deposited with the NCBI under GEO accession number GSE73663.

[5] = test system: MCF-7 cells; experiment: oleic acid (OA)-induced MCF-7 cell proliferation, WST1; conditions: for OA-induced MCF-7 cell proliferation with added agent: 100 nM OA, agent 1 μM, 6 days
[6] = test system: MCF-7 cells; experiment: MCF-7 proliferation in serum from obese individuals or standard culture; conditions: 1 μM, six days
[7] = test system: LRRC54 gene; experiment: LRRC54 (non-genomic gene) mRNA expression, qPCR; conditions: MCF-7 cells, 1 μM ICI pretreatment, 1 μM PaPE-1
[8] = test system: eNOS; experiment: eNOS activation in primary endothelial cells (14C-L-arginine to 14C-L-citrulline); assay type: cell-based, bovine; conditions: 1 μM ICI 182,780; listed as ICI
[9] = test system: MCF-7 cells; experiment: RNA-Seq of MCF-7 cells treated with OA with and without PaPE-1; assay type: cell-based, human; conditions: 100 nM OA, 24 h
Procedure: FIG. 38. Identification of genes induced by OA and PaPE-1's effect on the gene regulation. (A) RNA-Seq analysis of gene expression changes induced by OA and OA+PaPE1. Heat map of the genes with significant changed expression. MCF-7 cells were treated with Veh or 100 nM OA with and without 1 μM PaPE-1 for 24 h. RNA was isolated and RNA-Seq was performed using 2 samples from each treatment group. Differentially regulated genes were determined with p<0.05 and expression fold change >2. (B) Clusters from A. regulated by OA and reversed by PaPE-1. The average gene expression level of the cluster1 (C1) and 2 (C2) identified as PaPE-1 regulated high-fat genes. In C1, there are 425 genes whose expression were found stimulated in OA but not in the OA+PaPE-1 treatment. In C2, there are 646 genes whose expression were found suppressed in the OA but restored by OA+PaPE-1 treatment. (C) Venn diagram analysis. […] (D) Examples of OA-regulated genes. Some of the top functions of the involved genes are presented.

[10] = test system: ERα recruitment to chromatin; experiment: ERα ChIP-Seq of MCF-7 cells treated with OA with or without PaPE-1; assay type: cell-based, human; conditions: 100 nM OA, 45 minutes
Procedure: FIG. 39. ERα chromatin binding sites induced by OA and the effect of PaPE-1 in reversing these changes in the ERα cistrome. (A) Recruitment of ERα to chromatin in the presence of PaPE-1, OA and OA+PaPE-1. MCF-7 cells were treated with Veh and 100 nM OA with or without 1 μM PaPE-1 for 45 minutes. ERα-DNA complexes were pulled down using ERα antibodies. Three biological replicates were pooled and sequenced. Clustering of ERα binding sites in treatments of Veh (0.1% EtOH), PaPE-1 (1 μM), OA (100 nM), and OA (100 nM)+PaPE-1 (1 t.M) was done using seqMINER software. (B) Validation of effect of OA and PaPE-1 on the ERα binding at regulatory region of PgR, CISH and SREBP1C using ChIP-qPCR. MCF-7 cells were treated with Veh and 100 nM OA with or without 1 μM PaPE-1 for 45 minutes. ERα-DNA complexes were pulled down using ERα antibodies. Recruitment of ERα to PgR (chr11:100,904,522-100,905,458), CISH (chr3:50,642,336-50,643,191) and SREBP1 (chr17:17,743,329-17,743,912) sites were quantified by Q-PCR. The experiment was repeated 3 times with at least duplicates each time. Mean±SEM is plotted. […] Mean±SEM is plotted. (C) Binding sites whose ERα occupation increased upon OA treatment (cluster marked by * in B). The ERα binding sites were separated into four clusters of characteristic patterns: C1, C2, C3 and C4. […]

[11] = test system: mTOR pathway; experiment: OA-induced mTOR pathway activation in MCF-7 cells, western blot; conditions: 100 nM OA, time course
[12] = test system: LRRC54 gene vs PgR gene; experiment: preferential activation of non-genomic (LRRC54) over genomic (PgR) gene; conditions: relative to activation by E2
[13] = test system: ERα-SRC3 interaction; experiment: tr-FRET assay of SRC3 coactivator binding to ERα; assay type: biochemical; conditions: 10 nM E2-ERα complex
Excerpt: Using a time-resolved Forster resonance energy transfer (tr-FRET) assay, the binding of the steroid receptor coactivator 3 (SRC3) to ERu was monitored.

[14] = test system: PgR gene; experiment: PgR (genomic gene) mRNA expression, qPCR; conditions: MCF-7 cells; 1 μM PaPE or 10 nM E2 for 4 h where stated; versus vehicle or E2

## C[C@]12CC[C@@H]3c4ccc(O)cc4CC[C@H]3[C@@H]1CC[C@@H]2O [Compound E2, estradiol, reference compound]
[1]; mouse, in vivo
  uterine weight in reendothelialization study: greatly elevated; also recorded: increases uterine weight
[2]; 3 days post-stroke
  reduction of leukocytes infiltrated in the brain: 63%
[2]; compared with vehicle
  uterine wet weight: caused an increase in uterine wet weight
[3]; 3 weeks
  mammary gland ductal morphology: elicited marked ductal growth
[3]; E2 5 μg/day, PaPE up to 300 μg/day
  uterine weight: very effective in increasing growth of the uterus; also recorded: markedly increased
[4]; 1 μM AZD6244, 4 h
  regulated genes blocked by MAPK inhibitor AZD6244: 23%
[4]; 1 μM PP242, 4 h
  regulated genes blocked by mTOR pathway inhibitor PP242: 40%
[4]; 4 h
  number of genes regulated: ~1500 genes
[4]; 24 h
  number of genes regulated: about 3000 genes

## C[C@]12CC[C@@H]3c4ccc(O)cc4C[C@@H](CCCCCCCCC[S+]([O-])CCCC(F)(F)C(F)(F)F)[C@H]3[C@@H]1CC[C@@H]2O (stereo partly shown) [ICI 182,780, Fulvestrant]
[1]; ICI 182,780 360 μg/mouse
  endothelial repair responses elicited by E2 and PaPE-1 with antiestrogen: fully prevented
[1]; mouse, in vivo
  uterine stimulation by E2 with antiestrogen: blocked uterine stimulation by E2
[5]
  OA-induced MCF-7 cell proliferation with added agent: blocked OA-induced cell proliferation; also recorded: suppressed
[6]
  inhibition of MCF-7 proliferation in normal cell culture conditions: better agents
[7]
  activation of LRRC54 gene expression by PaPE-1 in presence of antiestrogen: blocked
[8]
  eNOS / NOS stimulation by E2 and PaPEs with antiestrogen: fully attenuated; also recorded: fully blocked

## CCCCCCCC/C=C\CCCCCCCC(=O)O [OA, oleic acid]
[9]
  genes downregulated by OA: about 500 genes
  genes upregulated by OA: about 350 genes
[10]
  ERα recruitment to chromatin upon OA: recruited to novel chromatin sites upon OA treatment
[5]; 1 and 100 nM
  MCF-7 cell proliferation with free fatty acid: very efficient in increasing cell proliferation in MCF-7 cells
[11]
  mTOR pathway activation by OA: robust activation of mTOR pathway downstream targets Akt, S6 and 4EBP1

## CC/C(=C(\c1ccc(O)cc1)c1ccc(OCCN(C)C)cc1)c1ccccc1 [OH-Tam, trans-hydroxytamoxifen, reference compound]
[5]; listed as 4-OH-Tamoxifen
  OA-induced MCF-7 cell proliferation with added agent: blocked OA-induced cell proliferation; also recorded: suppressed
[6]
  inhibition of MCF-7 proliferation in normal cell culture conditions: better agents
[12]
  preference for activation of the non-genomic pathway (LRRC54 over PgR), in words: Neither Raloxifene (RAL) nor hydroxytamoxifen (TOT) show selective activation of the non-genomic gene LRRC54
[13]
  reversal of the E2-promoted ER-SRC3 interaction: reversed the ER-SRC3 interaction promoted by E2
[14]
  PgR (genomic gene) mRNA expression, in words: slight stimulation of the PgR gene
